What all share (experiment): KINOMEscan competition binding
One assay concerns the target CLK4 (Homo sapiens, UniProt Q9HAZ1). The following applies: read-out: %Inh CLK4.
Another assay has as its target ERK2 (Homo sapiens, UniProt P28482). As to conditions: read-out: %Inh ERK2.
Another assay concerns the target LTK (Homo sapiens, UniProt P29376). The following applies: read-out: %Inh LTK.
A further assay addresses MAP3K1 (Homo sapiens, UniProt Q13233). As to conditions: read-out: %Inh MAP3K1.
The target in the next assay is ERK1 (Homo sapiens, UniProt P27361). As to conditions: read-out: %Inh ERK1.
ERK1, sequence (P27361 whole entry): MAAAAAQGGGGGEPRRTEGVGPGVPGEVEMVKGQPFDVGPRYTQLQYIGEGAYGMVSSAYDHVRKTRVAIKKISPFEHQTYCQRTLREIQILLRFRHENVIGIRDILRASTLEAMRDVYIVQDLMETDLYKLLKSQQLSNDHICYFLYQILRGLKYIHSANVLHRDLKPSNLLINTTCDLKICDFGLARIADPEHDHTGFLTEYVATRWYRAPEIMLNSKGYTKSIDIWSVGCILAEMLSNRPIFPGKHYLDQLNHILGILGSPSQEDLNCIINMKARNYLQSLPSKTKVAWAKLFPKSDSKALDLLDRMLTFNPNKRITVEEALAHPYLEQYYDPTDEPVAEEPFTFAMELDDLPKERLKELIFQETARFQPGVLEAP
Another assay concerns the target CLK2 (Homo sapiens, UniProt P49760). The following applies: read-out: %Inh CLK2.
In the next assay the target is CDK4-cyclinD3 (Homo sapiens, UniProt P11802). As to conditions: read-out: %Inh CDK4-cyclinD3.
CDK4-cyclinD3, sequence (P11802 whole entry): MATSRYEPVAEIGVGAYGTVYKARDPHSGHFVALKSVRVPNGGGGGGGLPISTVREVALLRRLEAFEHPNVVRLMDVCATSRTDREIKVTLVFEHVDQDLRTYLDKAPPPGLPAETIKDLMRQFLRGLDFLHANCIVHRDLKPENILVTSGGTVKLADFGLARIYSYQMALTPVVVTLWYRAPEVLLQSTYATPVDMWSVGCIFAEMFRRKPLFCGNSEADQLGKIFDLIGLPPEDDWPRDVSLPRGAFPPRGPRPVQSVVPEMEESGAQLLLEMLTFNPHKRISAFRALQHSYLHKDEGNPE
CDK4-cyclinD3, sequence (P30281 whole entry partner): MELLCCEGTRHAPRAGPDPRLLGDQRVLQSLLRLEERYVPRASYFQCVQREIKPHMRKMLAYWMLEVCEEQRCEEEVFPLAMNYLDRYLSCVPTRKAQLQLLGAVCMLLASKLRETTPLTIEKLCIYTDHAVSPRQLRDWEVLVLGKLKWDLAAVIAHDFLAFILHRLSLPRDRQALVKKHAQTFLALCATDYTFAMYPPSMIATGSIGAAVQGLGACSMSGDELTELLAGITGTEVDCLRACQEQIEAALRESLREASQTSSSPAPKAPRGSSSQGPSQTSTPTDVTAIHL
The target in the next assay is T1, ASK2 (Homo sapiens, UniProt O95382).
T1 sequence (O95382 1-1288): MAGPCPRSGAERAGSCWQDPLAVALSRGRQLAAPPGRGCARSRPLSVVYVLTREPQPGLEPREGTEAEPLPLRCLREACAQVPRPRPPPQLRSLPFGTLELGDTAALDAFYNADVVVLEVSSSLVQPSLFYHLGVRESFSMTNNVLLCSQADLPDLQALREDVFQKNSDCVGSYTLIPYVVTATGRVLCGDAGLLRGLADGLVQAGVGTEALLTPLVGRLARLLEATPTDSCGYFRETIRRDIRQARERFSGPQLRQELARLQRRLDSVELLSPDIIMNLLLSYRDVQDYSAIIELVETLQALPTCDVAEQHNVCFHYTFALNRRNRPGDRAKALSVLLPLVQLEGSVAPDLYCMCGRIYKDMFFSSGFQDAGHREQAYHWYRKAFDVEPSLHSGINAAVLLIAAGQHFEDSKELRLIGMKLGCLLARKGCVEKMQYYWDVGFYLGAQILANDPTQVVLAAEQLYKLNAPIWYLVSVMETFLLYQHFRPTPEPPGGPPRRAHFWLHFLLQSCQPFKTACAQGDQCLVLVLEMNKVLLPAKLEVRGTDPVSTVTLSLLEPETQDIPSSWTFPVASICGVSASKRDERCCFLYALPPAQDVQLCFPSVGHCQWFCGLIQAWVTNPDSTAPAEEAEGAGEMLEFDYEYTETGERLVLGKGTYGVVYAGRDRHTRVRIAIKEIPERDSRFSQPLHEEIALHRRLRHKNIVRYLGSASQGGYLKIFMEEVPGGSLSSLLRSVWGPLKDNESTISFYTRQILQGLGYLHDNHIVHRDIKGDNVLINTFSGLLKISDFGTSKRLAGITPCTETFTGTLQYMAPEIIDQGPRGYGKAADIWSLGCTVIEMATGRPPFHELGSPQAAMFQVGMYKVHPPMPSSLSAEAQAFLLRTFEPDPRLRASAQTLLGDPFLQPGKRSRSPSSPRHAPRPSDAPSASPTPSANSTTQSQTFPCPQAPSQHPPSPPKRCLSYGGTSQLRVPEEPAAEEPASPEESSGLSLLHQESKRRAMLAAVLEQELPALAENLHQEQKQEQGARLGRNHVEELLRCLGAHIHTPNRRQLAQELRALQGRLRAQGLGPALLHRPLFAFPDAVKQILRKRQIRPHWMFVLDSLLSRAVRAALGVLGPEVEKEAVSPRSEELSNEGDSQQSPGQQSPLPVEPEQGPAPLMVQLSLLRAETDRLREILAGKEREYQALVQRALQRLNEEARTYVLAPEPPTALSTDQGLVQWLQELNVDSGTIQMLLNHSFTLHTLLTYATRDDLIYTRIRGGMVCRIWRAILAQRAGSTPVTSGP
The following applies: read-out: %Inh ASK2.

For another assay, the target named is T2, MAP3K2 (Homo sapiens, UniProt Q9Y2U5).
T2 sequence (Q9Y2U5 1-619): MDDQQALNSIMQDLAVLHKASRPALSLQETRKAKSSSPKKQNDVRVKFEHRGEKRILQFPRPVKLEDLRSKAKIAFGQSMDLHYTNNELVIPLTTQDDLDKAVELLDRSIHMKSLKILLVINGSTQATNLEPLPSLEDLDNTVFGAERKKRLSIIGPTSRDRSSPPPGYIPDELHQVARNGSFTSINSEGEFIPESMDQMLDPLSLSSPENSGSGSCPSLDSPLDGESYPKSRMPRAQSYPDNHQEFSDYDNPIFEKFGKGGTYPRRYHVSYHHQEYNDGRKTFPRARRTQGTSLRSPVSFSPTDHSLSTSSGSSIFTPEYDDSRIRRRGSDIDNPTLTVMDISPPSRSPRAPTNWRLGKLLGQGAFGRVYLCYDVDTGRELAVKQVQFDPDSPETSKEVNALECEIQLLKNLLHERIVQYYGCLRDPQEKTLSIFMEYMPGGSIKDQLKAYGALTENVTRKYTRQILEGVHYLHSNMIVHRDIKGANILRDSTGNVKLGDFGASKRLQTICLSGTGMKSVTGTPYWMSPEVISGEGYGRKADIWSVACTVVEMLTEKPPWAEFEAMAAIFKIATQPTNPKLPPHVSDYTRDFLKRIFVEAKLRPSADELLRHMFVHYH
As to conditions: read-out: %Inh MAP3K2.

In the next assay the target is CDK8 (Homo sapiens, UniProt P49336). As to conditions: read-out: %Inh CDK8.
CDK8, sequence (P49336 whole entry): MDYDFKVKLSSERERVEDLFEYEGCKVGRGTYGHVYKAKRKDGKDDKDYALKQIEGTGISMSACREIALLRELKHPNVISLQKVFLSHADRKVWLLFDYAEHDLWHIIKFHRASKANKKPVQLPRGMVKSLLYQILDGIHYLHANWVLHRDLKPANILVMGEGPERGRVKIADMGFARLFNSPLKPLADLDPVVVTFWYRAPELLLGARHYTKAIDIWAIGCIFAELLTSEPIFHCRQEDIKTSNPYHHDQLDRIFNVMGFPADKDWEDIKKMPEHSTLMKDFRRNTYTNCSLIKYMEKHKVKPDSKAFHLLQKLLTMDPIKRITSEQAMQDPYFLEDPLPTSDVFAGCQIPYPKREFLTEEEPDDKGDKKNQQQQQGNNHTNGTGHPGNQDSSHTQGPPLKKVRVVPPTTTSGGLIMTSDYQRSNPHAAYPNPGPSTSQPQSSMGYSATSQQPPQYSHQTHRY
For a further assay, the target named is INSR (Homo sapiens, UniProt P06213). The following applies: read-out: %Inh INSR.
INSR, sequence (P06213 28-1382): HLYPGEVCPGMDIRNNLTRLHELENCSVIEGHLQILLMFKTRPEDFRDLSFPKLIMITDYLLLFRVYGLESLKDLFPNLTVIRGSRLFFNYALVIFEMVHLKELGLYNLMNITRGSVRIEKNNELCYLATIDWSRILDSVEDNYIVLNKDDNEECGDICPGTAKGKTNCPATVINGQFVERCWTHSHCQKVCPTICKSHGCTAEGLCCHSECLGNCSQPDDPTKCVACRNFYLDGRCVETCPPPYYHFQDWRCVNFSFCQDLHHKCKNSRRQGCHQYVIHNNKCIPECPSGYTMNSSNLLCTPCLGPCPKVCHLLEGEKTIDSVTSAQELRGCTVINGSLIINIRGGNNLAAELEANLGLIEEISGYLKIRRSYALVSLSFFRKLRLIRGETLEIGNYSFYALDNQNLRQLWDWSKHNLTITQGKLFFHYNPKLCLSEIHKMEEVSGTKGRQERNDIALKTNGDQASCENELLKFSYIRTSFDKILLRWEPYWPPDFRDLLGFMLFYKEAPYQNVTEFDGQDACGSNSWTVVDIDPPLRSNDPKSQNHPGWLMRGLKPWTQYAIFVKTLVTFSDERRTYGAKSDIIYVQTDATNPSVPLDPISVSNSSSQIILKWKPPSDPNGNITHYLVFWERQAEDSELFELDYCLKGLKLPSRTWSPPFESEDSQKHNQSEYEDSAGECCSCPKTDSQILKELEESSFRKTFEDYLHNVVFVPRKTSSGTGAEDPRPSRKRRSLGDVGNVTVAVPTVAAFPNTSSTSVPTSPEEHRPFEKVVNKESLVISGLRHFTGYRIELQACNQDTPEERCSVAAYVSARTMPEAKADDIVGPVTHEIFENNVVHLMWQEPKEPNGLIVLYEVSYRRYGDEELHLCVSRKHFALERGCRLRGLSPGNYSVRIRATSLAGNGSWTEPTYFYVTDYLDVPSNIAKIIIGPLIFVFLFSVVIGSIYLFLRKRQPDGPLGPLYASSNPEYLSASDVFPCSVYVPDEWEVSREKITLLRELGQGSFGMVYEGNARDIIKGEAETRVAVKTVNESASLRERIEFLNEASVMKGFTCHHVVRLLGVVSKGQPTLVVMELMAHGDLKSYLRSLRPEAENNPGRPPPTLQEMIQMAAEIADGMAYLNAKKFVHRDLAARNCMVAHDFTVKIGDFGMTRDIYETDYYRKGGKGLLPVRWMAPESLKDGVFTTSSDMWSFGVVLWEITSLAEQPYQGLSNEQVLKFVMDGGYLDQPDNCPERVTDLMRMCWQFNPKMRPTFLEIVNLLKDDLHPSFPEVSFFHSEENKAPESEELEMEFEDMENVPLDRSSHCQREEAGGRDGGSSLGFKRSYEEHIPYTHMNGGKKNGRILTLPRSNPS
The next assay addresses JNK2 (Homo sapiens, UniProt P45984). The following applies: read-out: %Inh JNK2.

LTK, sequence (P29376 17-864): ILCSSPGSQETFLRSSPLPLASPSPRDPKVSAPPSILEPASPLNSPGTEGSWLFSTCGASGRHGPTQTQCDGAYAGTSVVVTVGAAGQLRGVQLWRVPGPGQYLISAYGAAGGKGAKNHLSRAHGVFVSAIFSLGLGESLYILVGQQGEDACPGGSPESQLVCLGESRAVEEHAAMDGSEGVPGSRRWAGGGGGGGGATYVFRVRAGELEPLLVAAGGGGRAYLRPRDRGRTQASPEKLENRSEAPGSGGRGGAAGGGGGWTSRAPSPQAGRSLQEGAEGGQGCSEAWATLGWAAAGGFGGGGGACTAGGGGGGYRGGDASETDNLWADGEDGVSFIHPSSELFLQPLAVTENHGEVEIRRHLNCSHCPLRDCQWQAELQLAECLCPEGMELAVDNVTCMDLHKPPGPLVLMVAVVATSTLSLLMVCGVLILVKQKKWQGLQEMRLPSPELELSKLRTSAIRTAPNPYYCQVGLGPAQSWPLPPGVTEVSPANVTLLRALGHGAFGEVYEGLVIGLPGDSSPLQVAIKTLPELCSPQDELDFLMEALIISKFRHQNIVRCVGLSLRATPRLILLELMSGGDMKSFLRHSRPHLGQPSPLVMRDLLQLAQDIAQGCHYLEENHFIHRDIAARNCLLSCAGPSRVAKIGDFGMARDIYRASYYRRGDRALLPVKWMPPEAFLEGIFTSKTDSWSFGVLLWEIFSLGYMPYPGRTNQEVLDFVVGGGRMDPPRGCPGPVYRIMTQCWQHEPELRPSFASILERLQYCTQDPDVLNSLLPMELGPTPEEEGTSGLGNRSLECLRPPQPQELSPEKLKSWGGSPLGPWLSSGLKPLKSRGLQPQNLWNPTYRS
CLK2, sequence (P49760 whole entry): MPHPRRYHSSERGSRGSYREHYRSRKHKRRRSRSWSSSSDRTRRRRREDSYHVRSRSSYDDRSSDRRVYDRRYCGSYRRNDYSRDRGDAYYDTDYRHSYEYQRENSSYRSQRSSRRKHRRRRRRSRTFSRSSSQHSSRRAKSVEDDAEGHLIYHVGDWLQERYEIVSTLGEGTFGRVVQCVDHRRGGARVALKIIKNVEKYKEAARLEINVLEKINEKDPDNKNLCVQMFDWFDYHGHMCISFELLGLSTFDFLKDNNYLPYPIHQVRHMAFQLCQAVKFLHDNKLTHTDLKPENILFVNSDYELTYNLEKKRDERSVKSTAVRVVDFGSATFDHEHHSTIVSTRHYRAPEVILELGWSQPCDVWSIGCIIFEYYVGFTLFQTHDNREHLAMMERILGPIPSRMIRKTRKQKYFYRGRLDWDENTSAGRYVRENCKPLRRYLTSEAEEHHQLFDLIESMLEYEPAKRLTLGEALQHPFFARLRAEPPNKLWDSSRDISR
JNK2, sequence (P45984 whole entry): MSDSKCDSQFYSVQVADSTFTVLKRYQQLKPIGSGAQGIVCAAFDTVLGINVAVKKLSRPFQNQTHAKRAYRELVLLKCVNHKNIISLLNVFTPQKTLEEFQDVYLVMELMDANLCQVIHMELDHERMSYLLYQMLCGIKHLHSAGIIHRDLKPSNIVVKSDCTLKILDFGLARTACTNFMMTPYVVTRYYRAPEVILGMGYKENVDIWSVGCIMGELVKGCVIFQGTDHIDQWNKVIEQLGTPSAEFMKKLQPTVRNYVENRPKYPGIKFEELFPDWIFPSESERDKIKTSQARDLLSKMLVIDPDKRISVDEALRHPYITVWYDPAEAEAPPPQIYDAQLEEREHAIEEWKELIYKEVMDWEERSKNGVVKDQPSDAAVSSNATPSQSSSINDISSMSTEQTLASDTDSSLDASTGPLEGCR
ERK2, sequence (P28482 whole entry): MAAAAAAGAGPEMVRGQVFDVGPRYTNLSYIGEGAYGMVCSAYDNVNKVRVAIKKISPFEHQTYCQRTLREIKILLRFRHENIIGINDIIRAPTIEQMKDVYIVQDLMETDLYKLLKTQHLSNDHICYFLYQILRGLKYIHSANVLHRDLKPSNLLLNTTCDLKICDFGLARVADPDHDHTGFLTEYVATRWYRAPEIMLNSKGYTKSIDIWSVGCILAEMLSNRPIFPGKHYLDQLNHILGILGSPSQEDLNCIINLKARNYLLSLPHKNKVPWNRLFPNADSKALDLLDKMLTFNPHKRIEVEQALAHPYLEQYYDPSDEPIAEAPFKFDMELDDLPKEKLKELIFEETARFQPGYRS

Regarding `Cn1cc(-c2cnc(N)c3c(-c4ccc5c(c4)CCN5C(=O)Cc4ccccc4)csc23)cn1` [UNC10225012A], the inhibition at 1 µM came out at 0% at CLK4; 0% on ERK2; 0% on LTK; 4% on MAP3K1; 0% at ERK1; 19% on CLK2. Moreover, the inhibition at 1 µM at CDK4-cyclinD3 is 0%; at ASK2, 17%; on MAP3K2, 75%; at CDK8, 19%; at INSR, 12%; on JNK2, 0%.
For the molecule `CS(=O)(=O)Cc1ccc(Nc2nccc(-c3c(-c4cccc(NC(=O)C5CCCCC5)c4)nn4ncccc34)n2)cc1` [UNC10225159A], the inhibition at 1 µM on CLK4 turned out to be 0%; at ERK2, 0%; at LTK, 0%; at MAP3K1 it was 30%; at ERK1, 2%; at CLK2 it was 10%. The inhibition at 1 µM at CDK4-cyclinD3 was found to be 18%; on ASK2, 34%; on MAP3K2, 15%; at CDK8 it was 0%; at INSR, 42%; at JNK2, 49%.
In the case of `Cc1ccc(NC(=O)Nc2cccc(C(F)(F)F)c2)cc1` [UNC10225187A], the inhibition at 1 µM at CLK4 was 0%; on ERK2, 0%; on LTK, 0%; on MAP3K1, 0%; on ERK1, 0%; on CLK2, 36%. For the same molecule, the inhibition at 1 µM at CDK4-cyclinD3 stood at 0%; at ASK2, 0%; at MAP3K2 it was 0%; at CDK8, 0%; at INSR, 0%; on JNK2, 26%.
For the molecule `COc1cccc(OC)c1C(=O)Nc1cccc(-c2nn3ccccc3c2-c2ccnc(Nc3cccc(F)c3)n2)c1` [UNC10225310A], the inhibition at 1 µM is 0% on CLK4; 6% at ERK2; 13% on LTK; 0% at MAP3K1; 1% on ERK1; 21% on CLK2. Also, the inhibition at 1 µM on CDK4-cyclinD3 was found to be 7%; on ASK2, 0%; at MAP3K2 it was 7%; on CDK8, 0%; on INSR, 0%; on JNK2, 0%.
As for `O=c1cc(N2CCOCC2)nc2n(Cc3cccc(Cl)c3Cl)c(C3CC3)nn12` [UNC10225469A], the inhibition at 1 µM was determined as 0% on CLK4; 11% on ERK2; 0% on LTK; 14% at MAP3K1; 0% on ERK1; 25% at CLK2. Further, the inhibition at 1 µM on CDK4-cyclinD3, on ASK2, on MAP3K2, at CDK8, on INSR and at JNK2 was 0% throughout.
